Eight molecules from patent US6121323A, “Bishydroxyureas” (3M Innovative Properties Company, priority 1997, dated 2000) can be followed below.

Test [1] relates to Leukotriene C4 production in mouse peritoneal macrophages. Kind of test: In vitro mouse peritoneal macrophage Leukotriene C4 inhibition. It counts as cell-based. The settings on record: zymosan stimulated, read-out: Percent Inhibition. On the procedure:
IN VITRO MOUSE PERITONEAL MACROPHAGE LEUKOTRIENE C4 INHIBITION
The test described below measures the ability of compounds to inhibit the production of Leukotriene C4 in mouse peritoneal macrophages.
Mice (female, CD-1, weighing 25 g) are euthanized by exposure to carbon dioxide. The pertoneal cavity is exposed by peeling back the abdominal skin. A 5 mL portion of media (M199 containing 1% fetal bovine serum, 100 units/mL of penicillin, 100 μg/mL streptomycin, 20 units/mL of heparin and no glutamine) is injected into the exposed peritoneal cavity of each mouse. The lavage fluid is removed and pooled to yield proximately 1×10^6 macrophages/mL. A 2 mL portion of lavage fluid is added to each well of a 24 well sterile multidish and the marcophages are allowed to adhere to the plate for 2 hours at 37° C. in a 5% carbon dioxide atmosphere. The media is removed and each well is washed with 2 mL of phosphate buffered saline (PBS). A 1 mL portion of media, without heparin, but containing 5 μCi/mL of 3H-myoinositol is added to each well and the plates are incubated overnight at 37° C. in a 5% carbon dioxide atmosphere. The media is removed and the cells are washed twice with 2 mL portions of PBS. A 1 mL portion of Puck's saline formulation A containing 1 mM calcium chloride, 1 mM magnesium chloride and 10 mM lithium chloride is added to each well. (The Puck's formulation is made first as a 10× solution which contains 4 g of potassium chloride, 80 g of sodium chloride and 10 g of glucose per liter. The Puck's saline formulation A is made using 10 mL of the 10× Puck's formulation, 0.47 mL of 7.5% sodium bicarbonate and 2 mL of 1M N-2-hydroxyethylpiperazine-N'-2-ethanesulfonic acid per 100 mL.)
Compounds are dissolved in dimethyl sulfoxide. Compounds are tested at concentrations of 10, 1 and 0.1 μM. Each concentration is tested in duplicate.
A 1 μL portion of compound solution or vehicle (DMSO) is added to each well and the plates are incubated for 15 minutes at 37° C. in a 5% carbon dioxide atmosphere. Zymosan is then added to provide a final concentration of 50 μg/mL in each well and the plate is incubated for 1 to 2 hours at 37° C. in a 5% carbon dioxide atmosphere.
Following incubation 200 μL portions of media are transferred to 12×75 mm tubes. The tubes are either assayed immediately or stored at -20° C. until they can be assayed.
The media is assayed for the presence of Leukotriene C4 by radioimmunoassay which is performed according to the manufacturer's instructions (Advanced Magnetics; Cambridge, Mass.). Inhibition of LTC4 production is calculated as the ratio of the amount of LTC4 formed in the presence (LTC4 +cpd) and absence (LTC4 no cpd)of compound according to the equation below. [formula] IC50 values (concentration of compound producing a 50% inhibition of LTC4 production) are calculated by linear regression analysis of percentage inhibition versus log compound concentration plots.

Test [2] relates to Leukotriene B4 production in rat blood. Put plainly: Rat ex vivo Leukotriene B4 inhibition. Type of test: in vivo. The settings on record: 50 mg/Kg oral, 2 hours post dose, ex vivo A23187 challenge. On the procedure:
RAT EX VIVO LEUKOTRIENE B4 INHIBITION
The test method described below measures the ability of a compound when administrated orally to rats to inhibit the production of Leukotriene B4 in their blood which is drawn and challenged.
Rats (CD, male, non-fasted, 250 g) are lightly anesthetized with carbon dioxide and an approximately 0.75 mL sample of whole blood is obtained via cardiac puncture. The sample is dispensed into 12×75 mm polypropylene tubes containing 8-10 μL of 10,000 units/mL heparin, mixed and then maintained on ice. The rats are allowed to recover approximately one hour then dosed orally with compound dissolved in PEG 400 at a 5 mL/Kg volume. Five (5) rats are utilized per group. Two (2) hours post dose the rats are again anesthetized with carbon dioxide and the blood sampled again via cardiac puncture.
Duplicate 200 μL portions of blood are added to 1.0 mL polypropylene tubes. A 10 μL portion of 1 mM A23 187 Calcium Ionophore in dimethyl sulfoxide/Tris buffer is added to each tube. The tubes are gently vortexed then incubated in a 37° C. water bath for 30 minutes. The tubes are then centrifuged at 4000 rpm for 10 minutes. 50 μL portions of plasma are transferred to 1.0 mL tubes containing 200 μL of methanol. The tubes are vortexed then placed in the freezer overnight.
The tubes are removed from the freezer then centrifuged at 4000 rpm for 10 minutes. 20 μL portions of the methanol/plasma supernatant and 10 μl methanol dilutions of LTB4 standard are transferred to 96 well v-bottom microtiter plates. The plates are vacuum dried at 40° C. A 40 μL portion of LTB4 radioimmunoassay buffer is added to each well. The plate is bath sonicated for 5 minutes then assayed according to the manufacturer's instructions (Advanced Magnetics; Cambridge, Mass.). Percent inhibition values are obtained by comparing the level of LTB4 in the post-dose samples to the level in the pre-dose samples according to the equation below. [formula]

`CN(O)C(=O)Nc1ccc(Oc2ccc(NC(=O)N(C)O)cc2)cc1` [Example 6, 4,4'-Oxybis(1-hydroxy-1-methyl-3-phenylurea)]: in test [1], the inhibition at 0.1 µM is 48%, the inhibition at 1 µM was 99% and the inhibition at 10 µM was 99%.

As to `CN(O)C(=O)Nc1cccc2c(NC(=O)N(C)O)cccc12` [Example 8, 1,1'-(1,5-Naphthalene)bis(3-hydroxy-3-methylurea)], in test [1], the inhibition at 0.1 µM is 55%, the inhibition at 1 µM worked out at 76% and the inhibition at 10 µM came to 91%.

With `O=C(NCCCCCCNC(=O)N(O)Cc1ccccc1)N(O)Cc1ccccc1` [Example 10, 1,1'-Hexamethylenebis(3-hydroxy-3-benzylurea)], the inhibition in vivo at 50 mg/kg in test [2] is 8%. In test [1], the inhibition at 0.1 µM was 7%, the inhibition at 1 µM came out at 94% and the inhibition at 10 µM is 94%.

In the case of `CN(O)C(=O)Nc1cccc(NC(=O)N(C)O)c1` [Example 7, 1,1'-(m-Phenylene)bis(3-hydroxy-3-methylurea)], in test [2], the inhibition in vivo at 50 mg/kg was 59%. Besides, in test [1], the inhibition at 0.1 µM was -19%, the inhibition at 1 µM was found to be 7% and the inhibition at 10 µM was 98%.

Take `CN(O)C(=O)Nc1ccc(C(c2ccc(NC(=O)N(C)O)cc2)(C(F)(F)F)C(F)(F)F)cc1` [Example 5, 4,4'-(2,2-Hexafluoropropane)bis(1-hydroxy-1-methyl-3-phenylurea)]: in test [1], the inhibition at 0.1 µM stood at 91%, the inhibition at 1 µM worked out at 100% and the inhibition at 10 µM was 100%.

Take `COc1cc(-c2ccc(NC(=O)N(C)O)c(OC)c2)ccc1NC(=O)N(C)O` [Example 11]: the inhibition in vivo at 50 mg/kg in test [2] came to 4%. Moreover, in test [1], the inhibition at 0.1 µM was 42%, the inhibition at 1 µM is 100% and the inhibition at 10 µM was determined as 99%.

`CN(O)C(=O)N[C@H]1CC[C@H](NC(=O)N(C)O)CC1` [Example 9, trans-1,4-Cyclohexanebis(3-hydroxy-3-methylurea)]: testing at 50 mg/kg in test [2] gave an inhibition in vivo of 4%. In test [1], the inhibition at 0.1 µM was determined as 1%, the inhibition at 1 µM turned out to be 1% and the inhibition at 10 µM is -6%.

In the case of `CCc1cc(Cc2cc(CC)c(NC(=O)N(C)O)c(CC)c2)cc(CC)c1NC(=O)N(C)O` [Example 4, 4,4'-Methylenebis(1-hydroxy-1-methyl-3-(2,6-diethylphenyl)urea)], in test [1], the inhibition at 0.1 µM was -24%, the inhibition at 1 µM is 6% and the inhibition at 10 µM stood at 67%.

What is called inhibition is the relative decrease from the control value, in per cent. By inhibition in vivo is commonly meant how much of the control response was suppressed.
